Data on one compound can be found in patent US12029682B2, “Spray ejector mechanisms and devices providing charge isolation and controllable droplet charge, and low dosage volume ophthalmic administration” (EYENOVIA, INC., priority 2012, dated 2024).

The nature of the data set: Pharmacokinetic study: acid of latanoprost in aqueous humor (AH) by HPLC. The format is in vivo, beagle dog. The note with it: delivered by the spray ejector device. The protocol:
Eight normal laboratory beagles were chosen for this study. Conditions for inclusion included normal overall health and normal ophthalmic state as determined by gross eye exam by a boarded veterinary ophthalmologist. Pre- and post-dosing mass deposition calibrations of the spray device were consistently within 10% of the intended dose of 9 μl. A 9.0 μl dose of a commercially available prostaglandin pro-drug, latanoprost, was instilled topically in two eyes of each of eight normotensive beagle dogs using the spray ejector device. Levels of the acid of latanoprost were measured in aqueous humor (AH) obtained by aqueocentesis over a 7-hour period each day for 5 days. This protocol was repeated for latanoprost 0.005% delivered by eyedropper (average dose 26 μl).
All dogs received a washout and acclimation period of two weeks. In Week 1, all animals were assigned to a group, with two animals each in Groups 1, 2, 4, and 7. […] IOP and PD were measured while the topical anesthetic took effect. […]
Week 3 followed the Week 1 protocol, with the substitution of eyedropper-delivered 0.005% latanoprost at an average dose of 26 μl at time 0. […] All AH samples were frozen to −80° C., stored overnight on dry ice, and then analyzed for the acid of latanoprost using a latanoprost-specific HPLC methodology. […]

For `CC(C)OC(=O)CCC/C=C\C[C@@H]1[C@@H](CC[C@@H](O)CCc2ccccc2)[C@H](O)C[C@@H]1O` [latanoprost], the “absorption rate vs eyedropper-delivered drug in higher doses” value is “three-fold”.
